Literature values, collected in patent US20200069618A1, “COMPOSITIONS HAVING AN AGENT AND AN ENHANCER THEREOF, METHODS OF USE, AND DELIVERY SYSTEMS” (priority 2018, published 2020).

Tests used:
[1] = system: rats; conditions: intercerebroventricular administration
[2] = system: rats; conditions: administration into the basal forebrain

Question: For `CCCCC/C=C\C/C=C\C/C=C\C/C=C\CCCC(=O)NCCO` [anandamide, Anandamide], which “slow-wave sleep and REM sleep” value [1] is on record?
Answer: increase slow-wave sleep and REM sleep

Question: What about the wakefulness [1] of the same molecule?
Answer: decrease wakefulness

Question: What about the levels of adenosine [2] of the same molecule?
Answer: increase levels of adenosine
